Assay results as given in patent publication US20050250709A1, “Anti-neoplastic agents, combination therapies and related methods” (Bionaut Pharmaceuticals, priority 2003, published 2005).
Counter-ions that a name gives are not always drawn.

Columns and labels:
[1] = tested on: EGF-responsive gene expression; assay: EGF-responsive gene expression in recovered reporter cell lines; type: cell-based
Method: (§1) Cancer cell lines (Panc1, for pancreatic cancer, and A549 for non-small cell lung carcinoma) were transfected with the construct depicted in FIG. 1. The retroviral vector contained a […] gene (a negative selection marker), a zeocin resistance marker (a positive selection marker) and a gene encoding beta-galactosidase “β-gal”, as a reporter gene.
Cells were grown to a significant cell density and exposed to zeocin, so as to select for cells expressing the zeocin marker in the presence of high levels of extracellular signaling. Cells were also exposed to a growth factor, such as EGF, insulin or IGF, although in some instances, the growth factor had only minor effects on gene expression compared to the generalized effect of extracellular signaling. The selected cell cultures were greatly depleted of cells by zeocin treatment, as the vast majority of cells were eliminated by the zeocin. […] Under these conditions, cells were exposed to an agent such as ganciclovir that causes lethality in TK+ cells. This selection step eliminated those cells containing a nucleic acid construct that is expressed at significant levels even in low extracellular signaling conditions. The resulting cells were then used for further study.
FIGS. 3 through 9 depict the results from a series of experiments characterizing the recovered cell lines. […]

[2] = tested on: DU-145/Prostate; assay: anti-proliferative effect, DU-145 prostate cancer cell line; type: cell-based; conditions: Homo sapiens
Source text: (§2) The inhibition of reporter activity was later correlated with an anti-proliferative effect in representative colon, lung, prostate, cervical, renal, uterine, breast, and pancreatic cancer cell lines as shown in table 1.

[3] = tested on: HIF-2α protein; assay: level of HIF-2α protein in cancer cells; type: cell-based
[4] = tested on: Panc-1; assay: anti-proliferative effect, Panc-1 pancreatic cancer cell line; type: cell-based; conditions: Homo sapiens; Panc-1, anti-proliferative
Source text: as §2

[5] = tested on: MCF-7/Breast; assay: anti-proliferative effect, MCF-7 breast cancer cell line; type: cell-based; conditions: Homo sapiens, MCF7
Source text: as §2

[6] = tested on: SK-MES/Lung; assay: anti-proliferative effect, SK-MES lung cancer cell line; type: cell-based
Source text: as §2

[7] = tested on: HT-29/Colon; assay: anti-proliferative effect, HT-29 colon cancer cell line; type: cell-based; conditions: Homo sapiens
Source text: as §2
The ouabain concentration required to achieve an antiproliferative effect in cells of the HT29 colon cancer cell line (FIG. 20) is decreased five-fold in the presence of bicalutamide (Casodex).

[8] = tested on: LnCap/Prostate; assay: anti-proliferative effect, LnCap prostate cancer cell line; type: cell-based; conditions: Homo sapiens
Source text: as §2

[9] = tested on: MES-SA-DX5/Uterine; assay: anti-proliferative effect, MES-SA-DX5 uterine cancer cell line; type: cell-based; conditions: Homo sapiens
Source text: as §2

[10] = tested on: Caki-1/Renal; assay: anti-proliferative effect, Caki-1 renal cancer cell line; type: cell-based; conditions: Homo sapiens
Source text: as §2

[11] = tested on: A549/Lung; assay: anti-proliferative effect, A549 lung cancer cell line; type: cell-based; conditions: Homo sapiens
Source text: as §2

[12] = tested on: PC3/Prostate; assay: anti-proliferative effect, PC3 prostate cancer cell line; type: cell-based
Source text: as §2

[13] = tested on: C-33A/Cervical; assay: anti-proliferative effect, C-33A cervical cancer cell line; type: cell-based; conditions: Homo sapiens
Source text: as §2

[14] = serum half-life
[15] = tested on: EGF, HIF responsive cell line (HIF-responsive reporter gene); assay: reporter gene assay in EGF, HIF responsive cancer cell line; type: cell-based; conditions: for effect on regulated reporter gene expression (screen): single agents, screen of thousands of compounds
Method: as §1
Cells were grown to a significant cell density and exposed to zeocin, so as to select for cells expressing the zeocin marker in the presence of high levels of extracellular signaling. […] Under these conditions, cells were exposed to an agent such as ganciclovir that causes lethality in TK+ cells. This selection step eliminated those cells containing a nucleic acid construct that is expressed at significant levels even in low extracellular signaling conditions. The resulting cells were then used for further study.
An EGF, HIF responsive cell line was screened for compounds affecting the regulated gene expression. Thousands of compounds were screened.

[16] = tested on: MES-SA/Uterine; assay: anti-proliferative effect, MES-SA uterine cancer cell line; type: cell-based; conditions: Homo sapiens
Source text: as §2

[17] = tested on: HCT-116/Colon; assay: anti-proliferative effect, HCT-116 colon cancer cell line; type: cell-based; conditions: Homo sapiens
Source text: as §2

[18] = tested on: several different cancer cell lines; assay: proliferation of cancer cell lines (several lines, summary); type: cell-based; conditions: range over cell lines, read-out: IC50 across several different cancer cell lines
Method: The IC50 measured for ouabain across several different cancer cell lines ranged from about 80 nM to about 300 nM. The concentration at which a cardiac glycoside is effective as part of an antiproliferative treatment may be further decreased by combination with an additional agent that negatively regulates HIF-responsive genes, such as a redox effector or a steroid signal modulator. For example, as shown herein, the concentration at which a cardiac glycoside (ouabain) is effective for inhibiting proliferation of cancer cells is decreased 5-fold by combination with a steroid signal modulator (Casodex). Therefore, in certain embodiments, the invention provides combination therapies of cardiac glycosides with, for example, steroid signal modulators and/or redox effectors. Additionally, cardiac glycosides may be combined with radiation therapy, taking advantage of the radiosensitizing effect that many cardiac glycosides have.

COc1cc2ncnc(Nc3ccc(F)c(Cl)c3)c2cc1OCCCN1CCOCC1 [Iressa]
EGF-responsive gene expression [1]: inhibited

O=C(Nc1ccc([N+](=O)[O-])cc1Cl)c1cc(Cl)ccc1O [Niclosamide, niclosamide]
IC50 [2]: 5000 nM | level of HIF-2α protein [3]: decrease | IC50 [4]: 5000 nM | IC50 [5]: 2500 nM | IC50 [6]: 2000 nM | IC50 [7]: 8 µM | IC50 [8]: 2000 nM | IC50 [9]: 6 µM | IC50 [10]: 1500 nM | IC50 [11]: 1500 nM | IC50 [12]: 5000 nM | IC50 [13]: 5000 nM | serum half-life [14]: short | effect on regulated reporter gene expression (screen) [15]: effective | IC50 [16]: 9 µM | IC50 [17]: 800 nM

C[C@@H]1O[C@@H](O[C@H]2C[C@@H](O)[C@]3(CO)[C@H]4[C@H](O)C[C@]5(C)[C@@H](C6=CC(=O)OC6)CC[C@]5(O)[C@@H]4CC[C@]3(O)C2)[C@H](O)[C@H](O)[C@H]1O [Ouabain, ouabain]
IC50 [2]: 300 nM | IC50 [4]: 150 nM | IC50 [5]: 100 nM | IC50 [6]: 100 nM | IC50 [7]: > 0.8 µM | IC50 [8]: 150 nM | IC50 [9]: 0.08 µM | IC50 [10]: 150 nM | IC50 [18]: 80 to 300 nM | IC50 [11]: 300 nM | IC50 [12]: 150 nM | IC50 [13]: 100 nM | required dose for inhibition of reporter activity relative to cardiotonic dose [15]: well below the dose required for ouabain as a cardiotonic agent | effect on regulated reporter gene expression (screen) [15]: effective | IC50 [16]: 0.08 µM | IC50 [17]: 150 nM

CCCCC(CC)CNC(=N)NC(=N)NCCCCCCNC(=N)NC(=N)NCC(CC)CCCC (stereo not drawn) [alexidine dihydrochloride]
effect on regulated reporter gene expression (screen) [15]: effective

CC(C)/N=c1\cc2n(-c3ccc(Cl)cc3)c3ccccc3nc-2cc1Nc1ccc(Cl)cc1 [clofazimine]
effect on regulated reporter gene expression (screen) [15]: effective

Clc1ccccc1C(c1ccccc1)(c1ccccc1)n1ccnc1 [clotrimazole]
effect on regulated reporter gene expression (screen) [15]: effective

C/C=C(/C(=C/C)c1ccc(O)cc1)c1ccc(O)cc1 [dienestrol]
effect on regulated reporter gene expression (screen) [15]: effective

CC/C(=C(/CC)c1ccc(O)cc1)c1ccc(O)cc1 [diethylstilbestrol]
effect on regulated reporter gene expression (screen) [15]: effective

C[C@]12CC[C@H](O)C[C@H]1CC[C@@H]1[C@@H]2CC[C@]2(C)[C@@H](C3=CC(=O)OC3)CC[C@]12O [digitoxigenin]
effect on regulated reporter gene expression (screen) [15]: effective

C[C@H]1O[C@@H](O[C@H]2[C@@H](O)C[C@H](O[C@H]3[C@@H](O)C[C@H](O[C@H]4CC[C@@]5(C)[C@H](CC[C@@H]6[C@@H]5C[C@@H](O)[C@]5(C)[C@@H](C7=CC(=O)OC7)CC[C@]65O)C4)O[C@@H]3C)O[C@@H]2C)C[C@H](O)[C@@H]1O [digoxin]
effect on regulated reporter gene expression (screen) [15]: effective

Clc1ccc(COC(Cn2ccnc2)c2ccc(Cl)cc2Cl)cc1 (stereo not drawn) [econazole nitrate]
effect on regulated reporter gene expression (screen) [15]: effective

CC(=O)O[C@H]1C[C@H](O[C@H]2[C@@H](O)C[C@H](O[C@H]3[C@@H](O)C[C@H](O[C@H]4CC[C@@]5(C)[C@H](CC[C@@H]6[C@@H]5C[C@@H](O)[C@]5(C)[C@@H](C7=CC(=O)OC7)CC[C@]65O)C4)O[C@@H]3C)O[C@@H]2C)O[C@H](C)[C@H]1O[C@@H]1O[C@H](CO)[C@@H](O)[C@H](O)[C@H]1O [lanatoside C]
effect on regulated reporter gene expression (screen) [15]: effective

OC(c1cc(C(F)(F)F)nc2c(C(F)(F)F)cccc12)C1CCCCN1 (stereo not drawn) [mefloquine hydrochloride]
effect on regulated reporter gene expression (screen) [15]: effective

CC1=CC(=O)c2ccccc2C1=O [menadione]
effect on regulated reporter gene expression (screen) [15]: effective

CCCC(C(=O)OCCN(CC)CC)(c1ccccc1)c1ccccc1 [proadifen hydrochloride]
effect on regulated reporter gene expression (screen) [15]: effective
